# Square brackets hold non-standard residues; d marks the D form. Peptide text beside a SMILES is read from it.
# System: αSynA53T-YFP cells (HEK293T)
# Assay: Cell assay for seeded α-synuclein aggregation (FIG. 19)
# Assay type: cell-based, human
# Details: seeded with 30 nM PFF oligomers, day 3, two-stage transfection
# Method: A construct encoding full-length A53T-mutated human α-syn and fused with YFP at the C-terminus was synthesized and introduced into the pMK-RQ expression vector (GeneArt; Thermo Fisher Scientific, USA). The α-synA53T-YFP construct was sub-cloned using the restriction sites NheI (5′) and NotI (3′) in the vector pIRESpuro3 (Clontech; Takara Bio, JPN). HEK293T cells (American Type Culture Collection) were cultured in high-glucose Dulbecco's Modified Eagle's Medium (DMEM; Sigma-Aldrich, USA) which had 10% fetal calf serum (Sigma-Aldrich, USA), 50 units/ml penicillin, and also 50 μg/ml streptomycin (Sigma-Aldrich, USA) added thereto. The cells were cultured at 37° C. in a humidified atmosphere with 5% CO2.
# The cells plated in DMEM were transfected with Lipofectamine 2000 (Invitrogen; Thermo Fisher Scientific, USA). Stable cells were selected in DMEM with 1 μg/ml puromycin (EMD Millipore, USA). Monoclonal cell lines were produced by means of fluorescence-activated cell sorting of a polyclonal cell population in 96-well plates using a MoFlo XDP cell sorter (Beckman Coulter, USA). […]
# The plates were then incubated at 37° C. in a humidified atmosphere with 5% CO2. On the third day, the cells were imaged in an IN Cell Analyzer 6500HS system (Cytiva, USA) using the blue and green fluorescence channels, and analyzed by the IN Carta Image Analysis software (Cytiva, USA) which had been used to establish an algorithm for identifying intracellular aggregates in living cells. Four wells were used for each condition and 16 images were recorded per well and analyzed by a fully-automated algorithm in order to prevent distortions. […]
# In order to validate the inhibitory effect of SVD-1a in cells, use was made of the α-synA53T-YFP cell system which stably expresses human α-syn with the familial A53T mutation, fused with YFP, in HEK293T cells, and the fluorescence-based detection of aggregates makes it possible to clearly show the strongly fluorescent spots within the cells against the background, intracellularly after seeding with PFF oligomers. […] Panels C, F and I show αSynA53T-YFP fluorescence. […]
compound,measurement,value
"CC[C@@H](C)[C@@H](NC(=O)[C@@H](Cc1c[nH]cn1)NC(=O)[C@@H](CCC(=O)O)NC(=O)[C@@H](CCC(N)=O)NC(=O)[C@@H](Cc1c[nH]c2ccccc12)NC(=O)[C@@H](Cc1ccc(O)cc1)NC(=O)[C@H](NC(=O)[C@@H](CCC(=O)O)NC(=O)[C@@H](Cc1c[nH]cn1)NC(=O)[C@H](NC(=O)[C@H]1CCCN1C(=O)[C@@H](CC(C)C)NC(=O)[C@H](N)CCCNC(=N)N)[C@H](C)O)[C@H](C)O)C(=O)N[C@H](Cc1c[nH]c2ccccc12)C(=O)N[C@H](Cc1c[nH]cn1)C(=O)N[C@H](C)C(=O)N[C@H](CCCNC(=N)N)C(=O)N[C@H](CCCNC(=N)N)C(=O)N[C@H](CCCNC(=N)N)C(=O)N[C@H](CCCNC(=N)N)C(=O)N[C@H](CCCNC(=N)N)C(N)=O [SVD-1a, rlpthetywqehiwharrrrr] (H-[dR][dL][dP][dT][dH][dE][dT][dY][dW][dQ][dE][dH][dI][dW][dH][dA][dR][dR][dR][dR][dR]-NH2)",inhibition of α-syn aggregation in cells,inhibited α-syn aggregation in αSynA53T-YFP cells in a dose-dependent manner

# Source: US20250346629A1, “USE OF D-ENANTIOMERIC PEPTIDE LIGANDS OF MONOMERIC ALPHA-SYNUCLEIN FOR THE THERAPY OF VARIOUS SYNUCLEINOPATHIES” (PRIAVOID GMBH, priority 2021, published 2025)
